Source: patent publication US6576260B2 (Gruenenthal GmbH, priority 1999, dated 2003)

Assay: Intrinsic active substance release in water (USP <1087> intrinsic dissolution)
Assay type: physicochemical
Conditions: demineralized water, 37° C.±0.5° C.; gradient of cumulative release up to 10% released
Experimental: The intrinsic release of each of the two active substances is calculated from the gradient of the cumulative active substance release up to and including the time at which 10% of the […] have been released. It is given below as the release rate in mg·min^−1·cm^−2.

For COc1cccc([C@@]2(O)CCCC[C@@H]2CN(C)C)c1.Cl (racemic) [Tramadol hydrochloride, (1RS,2RS)-2-[(dimethylamino)methyl]-1-(3-methoxyphenyl)cyclohexanol hydrochloride], the “Intrinsic release in water (release rate)” value was 21 mg · min^−1 · cm^−2.

With COc1cccc(C2(O)CCCCC2CN(C)C)c1.O=C1NS(=O)(=O)c2ccccc21 (centres unmarked) [Tramadol saccharinate, tramadol saccharinate] the “Intrinsic release in water (release rate)” value was 2 mg · min^−1 · cm^−2.
